Data from patent publication US9629861B2, “Compositions and methods for treating bacterial infections using ceftaroline” (Forest Laboratories Holdings Limited, priority 2009, dated 2017).
Like-named read-outs stand apart in the source and are kept apart here.

Legend:
[1] = molecular target: T1, CYP2C19 (Homo sapiens, UniProt P33261); test: CYP inhibition in human liver microsomes; format: in vitro ADME
T1 construct: In vitro studies in human liver microsomes; from tissue; host or cells: human liver microsomes

[2] = system: Community-Acquired Bacterial Pneumonia (CABP); test: Phase 3 CABP Study 2 (Example 4, no adjunctive macrolide); format: in vivo, human; settings: for Clinical Cure Rate at TOC / Treatment Difference in clinical cure rate at TOC: CABP Study 2; for Difference, clinical cure rate at EOT / Difference, favorable microbiological outcome at TOC: ceftaroline minus ceftriaxone, Example 4; for Treatment Difference in clinical cure rate at TOC: versus ceftriaxone
Protocol: (§1) In both treatment groups of CABP Study 1, two doses of oral clarithromycin (500 mg q12h), were administered as adjunctive therapy starting on Study Day 1. No adjunctive macrolide therapy was used in CABP Study 2. Patients with new or progressive pulmonary infiltrate(s) on chest radiography and clinical signs and symptoms consistent with CABP with the need for hospitalization and IV therapy were enrolled in the studies. Treatment duration was 5 to 7 days. A switch to oral therapy was not allowed. The Modified Intent-to-Treat Efficacy (MITTE) population included all patients who received any amount of study drug according to their randomized treatment group and were in PORT (Pneumonia Outcomes Research Team) Risk Class III or IV.
(§2) The primary efficacy endpoint was the clinical response at the Test of Cure (TOC) visit in the co-primary CE and MITTE populations (Table 4).
The secondary objectives of the study were to evaluate the following: clinical response at end-of-therapy (EOT); the microbiological favorable outcome rate at TOC; the overall (clinical and radiographic) success rate at TOC; the clinical and microbiological response by pathogen at TOC; clinical relapse at late follow-up (LFU); microbiological reinfection/recurrence at LFU; and safety.
The following criteria were used for evaluation: The primary efficacy outcome measures were the per-subject clinical cure rate at test-of-cure (TOC) in the CE and MITTE Populations. Subjects were considered clinically cured at TOC if they had total resolution of all signs and symptoms of the baseline infection, or improvement of the infection such that no further antimicrobial therapy was necessary.
(§3) Non-inferiority was concluded if the lower limit of the 95% CI was higher than −10%.

[3] = system: CYP3A4/5; test: CYP induction in human hepatocytes; format: in vitro ADME
[4] = system: S. aureus; test: Example 4 CAP study, outcome by baseline pathogen; format: in vivo, Staphylococcus aureus
Source text: (§4) Per-pathogen clinical cure rate and favorable microbiological outcome rate at TOC in the mMITTE and ME Populations;

[5] = system: MDRSP; test: Example 5 CAP study, outcome by baseline pathogen; format: in vivo, Streptococcus pneumoniae
Source text: as §4

[6] = system: S. pneumoniae; test: Example 5 CAP study, outcome by baseline pathogen; format: in vivo, Streptococcus pneumoniae
Source text: as §4

[7] = Pharmacokinetics of ceftaroline after IV infusion of ceftaroline fosamil in adults with normal renal function; design: species or system human; settings: in vivo
Source text: The standard deviation is shown in brackets.

[8] = Pharmacokinetics in adolescent patients; format: in vivo, human; settings: adolescents 12 to 17; 8 mg/kg ceftaroline fosamil (or 600 mg if >75 kg)
Protocol: The pharmacokinetics of ceftaroline were evaluated in adolescent patients (ages 12 to 17) with normal renal function.

[9] = system: S. aureus; test: Example 5 CAP study, outcome by baseline pathogen; format: in vivo, Staphylococcus aureus
Source text: as §4

[10] = system: CYP2C8; settings: human hepatocytes
[11] = system: Community-Acquired Bacterial Pneumonia (CABP); test: Phase 3 CABP Study 1 (Example 5, adjunctive clarithromycin); format: in vivo, human; settings: for Clinical Cure Rate at TOC / Treatment Difference in clinical cure rate at TOC: CABP Study 1; for Difference, clinical cure rate at EOT / Difference, favorable microbiological outcome at TOC: ceftaroline minus ceftriaxone, Example 5; for Treatment Difference in clinical cure rate at TOC: versus ceftriaxone
Protocol: as §1, §2
The secondary objective of the study was to evaluate the following: the clinical response at end-of-therapy (EOT); the microbiological favorable outcome rate at TOC; the overall (clinical and radiographic) success rate at TOC; the clinical and microbiological response by pathogen at TOC; clinical relapse at late follow-up (LFU); microbiological reinfection/recurrence at LFU; and safety.
The primary efficacy outcome measures were the per-subject clinical cure rate at TOC in the CE and MITTE Populations. Subjects were considered clinically cured at TOC if they had total resolution of all signs and symptoms of the baseline infection, or improvement of the infection such that no further antimicrobial therapy was necessary.
as §3

[12] = molecular target: T2, CYP2C9 (Homo sapiens, UniProt P11712); test: CYP inhibition in human liver microsomes; format: in vitro ADME
T2 construct: In vitro studies in human liver microsomes; from tissue; host or cells: human liver microsomes

[13] = molecular target: T3, CYP2C8 (Homo sapiens, UniProt P10632); test: CYP inhibition in human liver microsomes; format: in vitro ADME
T3 construct: In vitro studies in human liver microsomes; from tissue; host or cells: human liver microsomes

[14] = Example 5
Protocol: The 600-mg dose of ceftaroline fosamil infused over 60 minutes was split into two infusions in order to maintain the blind. For subjects with moderate renal impairment (30 mL/min<CrCl≦50 mL/min), as estimated by the Cockroft-Gault formula, unblinded pharmacy staff or unblinded study staff could adjust the dose of ceftaroline fosamil to two consecutive 200 mg infusions and readjust dose to two 300 mg infusions when renal function improved (CrCl>50 mL/min). The duration of treatment was between 5 to 7 days.
All subjects who received any amount of study drug were included in the safety analysis. Safety measures included monitoring for adverse events (AE) up to TOC and serious adverse events (SAE) through LFU; recording vital signs, physical examination, electrocardiogram (ECG), and clinical laboratory findings (clinical chemistry, hematology, and urinalysis), at prespecified times throughout the study.

[15] = Safety population, listed as ceftaroline

T1 sequence (P33261 whole entry): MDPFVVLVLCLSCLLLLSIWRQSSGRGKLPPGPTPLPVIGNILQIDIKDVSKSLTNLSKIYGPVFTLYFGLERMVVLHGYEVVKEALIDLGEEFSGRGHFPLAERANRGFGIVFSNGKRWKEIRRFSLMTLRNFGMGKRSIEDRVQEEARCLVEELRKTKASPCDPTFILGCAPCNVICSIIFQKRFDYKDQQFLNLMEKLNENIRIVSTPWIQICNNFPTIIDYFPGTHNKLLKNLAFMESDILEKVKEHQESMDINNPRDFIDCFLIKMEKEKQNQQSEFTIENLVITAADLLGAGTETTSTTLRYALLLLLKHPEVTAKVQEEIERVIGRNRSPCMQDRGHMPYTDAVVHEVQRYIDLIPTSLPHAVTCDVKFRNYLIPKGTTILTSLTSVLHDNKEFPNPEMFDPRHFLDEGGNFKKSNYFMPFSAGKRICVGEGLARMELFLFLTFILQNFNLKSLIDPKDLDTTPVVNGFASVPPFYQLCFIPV
T2 sequence (P11712 whole entry): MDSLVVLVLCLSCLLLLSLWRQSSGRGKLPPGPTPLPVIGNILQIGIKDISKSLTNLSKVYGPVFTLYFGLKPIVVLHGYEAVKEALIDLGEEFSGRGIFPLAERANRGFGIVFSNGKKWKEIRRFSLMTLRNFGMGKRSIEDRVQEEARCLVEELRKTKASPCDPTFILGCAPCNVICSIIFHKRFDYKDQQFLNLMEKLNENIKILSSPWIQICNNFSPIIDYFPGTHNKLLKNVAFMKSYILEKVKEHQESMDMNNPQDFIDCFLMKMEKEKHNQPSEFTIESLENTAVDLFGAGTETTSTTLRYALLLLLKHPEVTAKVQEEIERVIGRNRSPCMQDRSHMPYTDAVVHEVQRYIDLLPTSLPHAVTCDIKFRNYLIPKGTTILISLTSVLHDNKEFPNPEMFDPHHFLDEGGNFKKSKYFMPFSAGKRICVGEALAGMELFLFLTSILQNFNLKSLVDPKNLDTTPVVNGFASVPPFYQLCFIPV
T3 sequence (P10632 whole entry): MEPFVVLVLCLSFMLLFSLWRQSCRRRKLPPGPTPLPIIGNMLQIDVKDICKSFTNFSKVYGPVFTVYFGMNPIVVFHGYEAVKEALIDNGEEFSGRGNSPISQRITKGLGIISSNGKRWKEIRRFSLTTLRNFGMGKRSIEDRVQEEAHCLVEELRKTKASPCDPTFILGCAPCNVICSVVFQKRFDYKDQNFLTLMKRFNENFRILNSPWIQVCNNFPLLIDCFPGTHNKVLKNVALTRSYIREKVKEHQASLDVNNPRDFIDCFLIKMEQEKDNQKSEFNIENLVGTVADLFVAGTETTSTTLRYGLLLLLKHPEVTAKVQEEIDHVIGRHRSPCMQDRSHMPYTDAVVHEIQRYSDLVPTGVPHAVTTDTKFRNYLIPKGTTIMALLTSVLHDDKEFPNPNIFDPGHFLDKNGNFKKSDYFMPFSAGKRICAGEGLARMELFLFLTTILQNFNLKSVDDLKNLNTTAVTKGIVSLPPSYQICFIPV

CCO/N=C(\C(=O)N[C@@H]1C(=O)N2C(C(=O)[O-])=C(Sc3nc(-c4cc[n+](C)cc4)cs3)CS[C@H]12)c1nsc(N)n1 [Ceftaroline]
inhibition of CYP2C19 [1]: neither ceftaroline fosamil nor ceftaroline inhibits | Clinical Cure Rate at TOC ([2]; CE population): 193 (82.1) % | Clinical Cure Rate at TOC ([2]; MITTE population): 235 (81.3) % | Difference, clinical cure rate at EOT ([2]; CE): 6.0% | Difference, favorable microbiological outcome at TOC ([2]; ME): 1.8% | Difference, clinical cure rate at EOT ([2]; MITTE): 7.4% | Difference, favorable microbiological outcome at TOC ([2]; mMITTE): 0.4% | Treatment Difference in clinical cure rate at TOC ([2]; CE): 4.9% | Treatment Difference in clinical cure rate at TOC ([2]; MITTE): 5.9% | induction of CYP3A4/5 [3]: not inducers | Favorable Microbiological Outcome at TOC by Baseline Pathogen ([4]; ME): 11/15 (73.3) % | Clinical Cure Rate at the TOC Visit by Baseline Pathogen ([4]; ME population): 10/15 (66.7) % | Favorable Microbiological Outcome at TOC by Baseline Pathogen ([5]; ME): 2/2 (100.0) % | Clinical Cure Rate at the TOC Visit by Baseline Pathogen ([5]; ME population): 2/2 (100.0) % | Favorable Microbiological Outcome at TOC by Baseline Pathogen ([6]; ME): 21/24 (87.5) % | Clinical Cure Rate at the TOC Visit by Baseline Pathogen ([6]; ME population): 21/24 (87.5) % | CL/Fm ([7]; human): 9.58 (1.85) L/h | mean plasma terminal elimination half-life ([7]; human): approximately 2.5 hours | Cmax and AUC versus dose [7]: increased approximately in proportion to increases in dose | mean AUC less than in adult subjects after 600 mg [8]: ~23% | mean Cmax less than in adult subjects after 600 mg [8]: about 10% | Favorable Microbiological Outcome at TOC by Baseline Pathogen ([9]; ME): 8/10 (80.0) % | Clinical Cure Rate at the TOC Visit by Baseline Pathogen ([9]; ME population): 8/10 (80.0) % | induction of CYP2C8 [10]: not inducers | Clinical Cure Rate at TOC ([11]; CE population): 194 (86.6) % | Clinical Cure Rate at TOC ([11]; MITTE population): 244 (83.8) % | Difference, clinical cure rate at EOT ([11]; CE): 7.6% | Difference, favorable microbiological outcome at TOC ([11]; ME): 11.0% | Difference, clinical cure rate at EOT ([11]; MITTE): 6.3% | Difference, favorable microbiological outcome at TOC ([11]; mMITTE): 9.3% | Treatment Difference in clinical cure rate at TOC ([11]; CE): 8.4% | Treatment Difference in clinical cure rate at TOC ([11]; MITTE): 6.2% | inhibition of CYP2C9 [12]: neither ceftaroline fosamil nor ceftaroline inhibits | inhibition of CYP2C8 [13]: neither ceftaroline fosamil nor ceftaroline inhibits | TEAEs leading to premature discontinuation from study drug administration [14]: 3.7% | subjects with SAEs considered possibly or probably related to study drug [14]: 2 subjects | Early withdrawal from study, reason Adverse Event ([14]; MITTE population): 5 (1.7) % | Any AE (TEAE), subjects ([14]; Safety population): 119 (39.9) % | Constipation, subjects ([14]; Safety population): 7 (2.3) % | Diarrhea, subjects ([14]; Safety population): 14 (4.7) % | Headache, subjects ([14]; Safety population): 10 (3.4) % | Hypertension, subjects ([14]; Safety population): 6 (2.0) % | Hypokalemia, subjects ([14]; Safety population): 4 (1.3) % | Insomnia, subjects ([14]; Safety population): 9 (3.0) % | Nausea, subjects ([14]; Safety population): 8 ( 2.7) % | Phlebitis, subjects ([14]; Safety population): 7 (2.3) % | Any AE (TEAE), subjects [14, 15]: 39.9% | Diarrhea, subjects [14, 15]: 4.7% | Headache, subjects [14, 15]: 3.4%
